Article PMC7558399, “In Vitro Selective Growth-Inhibitory Activities of Phytochemicals, Synthetic Phytochemical Analogs, and Antibiotics against Diarrheagenic/Probiotic Bacteria and Cancer/Normal Intestinal Cells” (Pharmaceuticals, 2020)
≈ marks a conversion by molar mass, not a printed value. Read-outs that look alike come from different tables or passages of the source.

Tests used:
Type in all cases: cell-based
[1] = system: Listeria monocytogenes (ATCC 7644); experiment: Broth microdilution MIC, L. monocytogenes; settings: ATCC7644, growth inhibited by ≥80%, read-out: MIC
[2] = system: Enterococcus faecalis (ATCC 29212); experiment: Broth microdilution MIC, E. faecalis; settings: ATCC29212, growth inhibited by ≥80%, read-out: MIC
[3] = system: Lactobacillus rhamnosus (CCM 7091); experiment: Broth microdilution MIC, L. rhamnosus; settings: Lacticaseibacillus rhamnosus, CCM7091; Lactobacillus rhamnosus; growth inhibited by ≥80%; read-out: MIC
[4] = system: E. coli 0175:H7 (NCTC 12900); experiment: microbe, parasite or virus in culture; settings: Escherichia coli, NCTC12900
[5] = system: Clostridium perfringens (DSMZ 11778); experiment: microbe, parasite or virus in culture; settings: DSMZ11778
[6] = system: FHs 74 Int (ATCC CCL 241) intestinal normal cells; experiment: MTT cytotoxicity assay, FHs 74 Int; settings: FHs74Int, 72 h, FHs 74 Int (intestinal normal cells), MTT; for IC50: read-out: IC50 ± SD; for IC80: read-out: IC80 ± SD (80% inhibitory concentration of proliferation)
[7] = system: Bacteroides fragilis (ATCC 25285); experiment: Broth microdilution MIC, B. fragilis; settings: ATCC25285, growth inhibited by ≥80%, read-out: MIC
[8] = system: Clostridium difficile (DSMZ 12056); experiment: microbe, parasite or virus in culture; settings: Clostridioides difficile, DSMZ12056, Clostridium difficile, read-out: MIC
[9] = system: Yersinia enterocolitica (ATCC 9610); experiment: Broth microdilution MIC, Y. enterocolitica; settings: ATCC9610, growth inhibited by ≥80%, read-out: MIC
[10] = system: Shigella flexneri (ATCC 12022); experiment: microbe, parasite or virus in culture; settings: ATCC12022
[11] = system: Bifidobacterium breve (ATCC 15700); experiment: Broth microdilution MIC, B. breve; settings: ATCC15700, growth inhibited by ≥80%, read-out: MIC
[12] = system: Bifidobacterium longum ssp. longum (DSMZ 20219); experiment: Broth microdilution MIC, B. longum ssp. longum; settings: DSMZ20219; Bifidobacterium longum ssp. longum; growth inhibited by ≥80%; read-out: MIC
[13] = system: Lactobacillus reuteri (CCM 3625); experiment: Broth microdilution MIC, L. reuteri; settings: Limosilactobacillus reuteri, CCM3625; Lactobacillus reuteri; growth inhibited by ≥80%; read-out: MIC
[14] = system: Bifidobacterium adolescentis (DSMZ 20087); experiment: Broth microdilution MIC, B. adolescentis; settings: DSMZ20087, growth inhibited by ≥80%, read-out: MIC
[15] = system: probiotic bacteria (9 strains); experiment: Broth microdilution MIC, probiotic bacteria as a group (mean or range over strains); settings: mean of 9 strains; >512 replaced with 1024; read-out: x¯ -PB ± SD: mean MIC for probiotic bacteria
[16] = system: Escherichia coli (ATCC 25922); experiment: Broth microdilution MIC, E. coli; settings: ATCC25922, growth inhibited by ≥80%, read-out: MIC
[17] = system: Caco-2 (ATCC HTB 37) intestinal cancer cells; experiment: MTT cytotoxicity assay, Caco-2; settings: Homo sapiens, Caco-2, MTT, 72 h; for IC50: read-out: IC50 ± SD; for IC80: read-out: IC80 ± SD (80% inhibitory concentration of proliferation)
[18] = system: Lactobacillus casei (DSMZ 20011); experiment: Broth microdilution MIC, L. casei; settings: Lacticaseibacillus casei, DSMZ20011; Lactobacillus casei; growth inhibited by ≥80%; read-out: MIC
[19] = system: Salmonella enterica ssp. enterica serovar Enteritidis (ATCC 13076); experiment: Broth microdilution MIC, Salmonella Enteritidis; settings: Salmonella Enteritidis, growth inhibited by ≥80%, read-out: MIC
[20] = system: Bacillus cereus (ATCC 14579); experiment: Broth microdilution MIC, B. cereus; settings: ATCC14579, growth inhibited by ≥80%, median/mode, read-out: MIC
[21] = system: Vibrio parahaemolyticus (ATCC 17802); experiment: Broth microdilution MIC, V. parahaemolyticus; settings: ATCC17802, growth inhibited by ≥80%, read-out: MIC
[22] = system: S. enterica ssp. enterica serovar Typhimurium (ATCC 14028); experiment: Broth microdilution MIC, Salmonella Typhimurium; settings: Salmonella Typhimurium, growth inhibited by ≥80%, read-out: MIC
[23] = system: HT29 (ATCC HTB 38) intestinal cancer cells; experiment: MTT cytotoxicity assay, HT29; settings: Homo sapiens, HT-29, HT29, MTT, 72 h; for IC50: read-out: IC50 ± SD; for IC80: read-out: IC80 ± SD (80% inhibitory concentration of proliferation)
[24] = system: Bifidobacterium bifidum (ATCC 29521); experiment: Broth microdilution MIC, B. bifidum; settings: ATCC29521, growth inhibited by ≥80%, read-out: MIC
[25] = system: Bifidobacterium animalis spp. lactis (DSMZ 10140); experiment: Broth microdilution MIC, B. animalis spp. lactis; settings: DSMZ10140; Bifidobacterium animalis spp. lactis; growth inhibited by ≥80%; read-out: MIC
[26] = system: diarrheagenic bacteria (12 strains); experiment: microbe, parasite or virus in culture
[27] = system: intestinal cancer cells (HT29 and Caco-2); experiment: MTT cytotoxicity assay, mean for intestinal cancer cells; settings: for IC50 / x¯ -CC ± SD: mean IC50 for intestinal cancer cells: mean of HT29 and Caco-2, >512 replaced with 1024; for IC50: read-out: x¯ -CC ± SD: mean IC50 for intestinal cancer cells; for IC80: read-out: x¯ -CC ± SD: mean IC80 for intestinal cancer cells
[28] = mean of 12 strains, >512 replaced with 1024, read-out: x¯ -DB ± SD: mean MIC for diarrheagenic bacteria

| SMILES | MIC [1] [µg/mL] | MIC [2] [µg/mL] | MIC [3] [µg/mL] | MIC [4] [µg/mL] | MIC [5] [µg/mL] | IC50 [6] [µg/mL] | IC80 [6] [µg/mL] | MIC [7] [µg/mL] | MIC [9] [µg/mL] | MIC [10] [µg/mL] | MIC [11] [µg/mL] | MIC [12] [µg/mL] | MIC [13] [µg/mL] | MIC [14] [µg/mL] | MIC [15] [µg/mL] | MIC [16] [µg/mL] | IC50 [17] [µg/mL] | IC80 [17] [µg/mL] | MIC [18] [µg/mL] | MIC [19] [µg/mL] | further results |
| --- | --- | --- | --- | --- | --- | --- | --- | --- | --- | --- | --- | --- | --- | --- | --- | --- | --- | --- | --- | --- | --- |
| Oc1c(Cl)cc(Cl)c2cccnc12 [CLX, 5,7-dichloroquinolin-8-ol] | 32 (≈ 149 µM) | 16 (≈ 74.7 µM) | 128 (≈ 598 µM) | 64 (≈ 299 µM) | 16 (≈ 74.7 µM) | 0.5 ± 0.02 (≈ 2.34 µM) | 2 ± 0.1 (≈ 9.34 µM) | 32 (≈ 149 µM) | 16 (≈ 74.7 µM) | 16 (≈ 74.7 µM) | 64 (≈ 299 µM) | 64 (≈ 299 µM) | 128 (≈ 598 µM) | 128 (≈ 598 µM) | 245 ± 306 (≈ 1150 µM) | 16 (≈ 74.7 µM) | 1.3 ± 0.04 (≈ 6.07 µM) | 5.9 ± 0.7 (≈ 27.6 µM) | 128 (≈ 598 µM) | 64 (≈ 299 µM) | MIC ([8]; growth inhibited by ≥80%): 8 µg/mL (≈ 37.4 µM); MIC [20]: 8 µg/mL (≈ 37.4 µM); MIC [21]: 16 µg/mL (≈ 74.7 µM); MIC [22]: 16 µg/mL (≈ 74.7 µM); IC50 [23]: 3.7 ± 0.3 µg/mL (≈ 17.3 µM); IC80 [23]: 5 ± 0.7 µg/mL (≈ 23.4 µM); MIC [24]: > 512 µg/mL; MIC [25]: 512 µg/mL (≈ 2390 µM); MIC [26, 28]: 24 ± 19 µg/mL (≈ 112 µM); IC50 [27]: 2.5 ± 1.2 µg/mL (≈ 11.7 µM); IC80 [27]: 5.4 ± 0.5 µg/mL (≈ 25.2 µM) |
| O=[N+]([O-])c1ccc(O)c2ncccc12 [NXL, 5-nitroquinolin-8-ol] | 16 (≈ 84.1 µM) | 32 (≈ 168 µM) | 16 (≈ 84.1 µM) | 32 (≈ 168 µM) | 4 (≈ 21 µM) | 0.4 ± 0.05 (≈ 2.1 µM) | 0.8 ± 0.05 (≈ 4.21 µM) | 4 (≈ 21 µM) | 8 (≈ 42.1 µM) | 2 (≈ 10.5 µM) | 32 (≈ 168 µM) | 16 (≈ 84.1 µM) | 16 (≈ 84.1 µM) | 16 (≈ 84.1 µM) | 20 ± 9 (≈ 105 µM) | 4 (≈ 21 µM) | 1.1 ± 0.03 (≈ 5.78 µM) | 5 ± 1.5 (≈ 26.3 µM) | 32 (≈ 168 µM) | 16 (≈ 84.1 µM) | MIC ([8]; […]): 2 µg/mL (≈ 10.5 µM); MIC [20]: 4 µg/mL (≈ 21 µM); MIC [21]: 8 µg/mL (≈ 42.1 µM); MIC [22]: 16 µg/mL (≈ 84.1 µM); IC50 [23]: 2.6 ± 0.3 µg/mL (≈ 13.7 µM); IC80 [23]: 3.7 ± 0.4 µg/mL (≈ 19.5 µM); MIC [24]: 16 µg/mL (≈ 84.1 µM); MIC [25]: 32 µg/mL (≈ 168 µM); MIC ([26]; B. cereus, clostridial species, E. coli, and S. flexneri, read-out: MICs): 2 to 4 µg/mL (≈ 10.5 to 21 µM); MIC [26, 28]: 12 ± 10 µg/mL (≈ 63.1 µM); IC50 [27]: 1.8 ± 0.8 µg/mL (≈ 9.47 µM); IC80 [27]: 4.4 ± 0.7 µg/mL (≈ 23.1 µM) |
| O=C(O)c1ccccc1O [SA, salicylic acid] | > 512 | > 512 | 512 (≈ 3710 µM) | > 512 | > 512 | 73.2 ± 4.6 (≈ 530 µM) | 207 ± 69 (≈ 1500 µM) | 128 (≈ 927 µM) | > 512 | > 512 | > 512 | 512 (≈ 3710 µM) | 512 (≈ 3710 µM) | > 512 | 597 ± 336 (≈ 4320 µM) | > 512 | > 512 | > 512 | 512 (≈ 3710 µM) | > 512 | MIC ([8]; […]): 256 µg/mL (≈ 1850 µM); MIC [20]: > 512 µg/mL; MIC [21]: > 512 µg/mL; MIC [22]: > 512 µg/mL; IC50 [23]: > 512 µg/mL; IC80 [23]: > 512 µg/mL; MIC [24]: > 512 µg/mL; MIC [25]: 128 µg/mL (≈ 927 µM); MIC [26, 28]: 960 ± 212 µg/mL (≈ 6950 µM); x¯ -CC ± SD: mean IC50 for intestinal cancer cells [27]: - (Not active (MIC/IC50/80 > 512 μg/mL, the value 1024 μg/mL was used for average calculation)); x¯ -CC ± SD: mean IC50 for intestinal cancer cells ([27]; listed as salicylic acid): ≥ 253.6 ± 208 µg/mL; IC80 [27]: > 512 µg/mL |
